This note sets out measurements from patent publication US4859673A, “Amide derivatives and antiallergic agents containing the same” (Terumo Kabushiki Kaisha, priority 1986, dated 1989).

For the test, the system named is passive cutaneous anaphylaxis reaction (PCA reaction). Description: PCA reaction-inhibitory effects in rats (passive cutaneous anaphylaxis, oral administration). The note with it: 1 hour before challenge. It is filed as in vivo, Female Sprague-Dawley strain rats. The protocol:
DNP-ascaris (1 mg) prepared by combining a swine ascaris extract with 2,4-dinitrophenyl sulfate was mixe with 20 mg of aluminum hydroxide gel. The mixture was administered to rats subcutaneously on the back, and at the same time the animals were intraperitoneally given 2×10^10 dead Bordetella pertussis respectively. The same procedures were repeated after 14 days, and blood sample was obtained after 21 days to produce antisera.
Female Sprague-Dawley strain rats (8 weeks old) were sensitized by subcutaneously administering 0.1 ml of 1:256 diluted antisera (titer=1024)respectively on the grained back. After 48 hours, groups of four rats were orally given the amide derivatives produced in the examples above at various concentrations. After one hour, the rats were challenged by intravenously administering a 0.5% physiological saline solution of Evans Blue containing 1 mg of the NDP-ascaris from the tail. After 30 minutes, the animal was sacrificed by bleeding and the portion of the skin with the dye exuded was cut off. The cut skin was treated with 1N-KOH solution, and the dye was extracted by adding 9 ml of 0.6N-phosphoric acid-acetone (5:13) mixture. The supernatant from centrifugal separation was measured for absorbancy at 620 nm to determine amount of the dye. Percent inhibition at each of the concentrations of the amide derivatives was calculated in comparison with amount of the dye for control group. Results are shown in Table-I. Percent inhibition of tranilast, an antiallergic agent commercially available from Kissei Pharmaceutical Co., Ltd. under the trade name of Rizaben against PCA reaction was also shown in Table-I. As shown in Table-I, the amide derivatives of the invention produced high PCA reaction-inhibitory effects.

On to `COc1cc(/C=C/C=C/C(=O)NCCN2CCC(OC(c3ccccc3)c3ccccc3)CC2)ccc1OCc1ccccc1` [Example 1, 1-[2-(5-(3-methoxy-4-benzyloxyphenyl)-2,4-pentadienoyl)aminoethyl]-4-diphenylmethoxypiperidine], for which the “Inhibition (%) mean ± SE, PCA reaction” value turned out to be 0 ± 20% (30 mg/kg) and 50 ± 14% (100 mg/kg).
Regarding `COc1cc(/C=C/C=C/C(=O)NCCN2CCC(OC(c3ccccc3)c3ccccc3)CC2)ccc1OC1CCCO1` (stereo not drawn) [Example 2, 1-[2-(5-(3-methoxy-4-(2-tetrahydrofuranyl)oxyphenyl)-2,4-pentadienoyl)aminoethyl]-4-diphenylmethoxypiperidine], the “Inhibition (%) mean ± SE, PCA reaction” value (10 mg/kg) is listed as 51 ± 18% and the “Inhibition (%) mean ± SE, PCA reaction” value (30 mg/kg) was determined as 71 ± 6%.
On to `CCOCOc1ccc(/C=C/C=C/C(=O)NCCN2CCC(OC(c3ccccc3)c3ccccc3)CC2)cc1OC` [Example 3, 1-[2-(5-(3-methoxy-4-ethoxymethoxyphenyl)-2,4-pentadienoyl)aminoethyl]-4-diphenylmethoxypiperidine], for which the “Inhibition (%) mean ± SE, PCA reaction” value by setting is: (30 mg/kg) 55 ± 9%; (100 mg/kg) 78 ± 8%.
For `COc1ccc(/C=C/C(=O)Nc2ccccc2C(=O)O)cc1OC` [Tranilast, reference compound], the “Inhibition (%) mean ± SE, PCA reaction” value by setting is: (100 mg/kg) 37 ± 8%; (200 mg/kg) 40 ± 10%; (300 mg/kg) 42 ± 5%.
